Usually viability, T/C stands for the ratio of treated to control. In general, IC50 refers to the point on the concentration scale where inhibition reaches its midpoint.

The assay relates to LG0567-F671-PDC KRAS tumor spheroid viability. The assay can be described thus: Anticancer human tumor LG0567-F671-PDC patient-derived lung adenocarcinoma cell line growth inhibition [KRAS2]. The note with it: spheroids with HUVEC and MSC; for viability, T/C: stronger effect = lower value; for IC50: compound alone. The source says:
Multicellular complex tumor spheroid response to RAS pathway inhibitors in combination with a targeted agents in patient-derived cell lines with oncogenic KRAS variants from multiple cancer types
A high-throughput screen of multi-cell type tumor spheroids was designed to identify active combinations of targeted small molecules and KRAS pathway inhibitors. Complex spheroids include a stromal component modeled by human endothelial cells (HUVEC) and fibroblasts modeled by human mesenchymal stem cells (MSCs). The concentration ranges selected for each drug and investigational agent were based upon clinically achievable concentrations if the clinical Cmax of the agent was known.
Compounds. The drugs and investigational agents: BI-3406 (NSC825286), BAY-293 (NSC824723), batoprotafib (TNO155; NSC825523), sotorasib (AMG 510; NSC818433), MRTX1257 (NSC819558), elimusertib (BAY 1895344; NSC800525), molibresib (GSK525762; NSC774829), temuterkib (LY3214996; NSC803410), venetoclax (NSC766270), alisertib (NSC759677), olaparib (NSC753686), talazoparib (NSC767125), erdafitinib (NSC781556), ipatasertib (NSC767898), cabozantinib (NSC761068), nintedanib (NSC756659), abemaciclib (NSC768073), docetaxel (NSC628503), trametinib (NSC758246), and sapanisertib (NSC764658) were obtained from the National Cancer Institute (NCI) Developmental Therapeutics Program Chemical Repository. The FDA-approved anticancer drug set is available from the Developmental Therapeutics Program. […] The stock solutions were prepared in dimethyl sulfoxide (DMSO, Sigma-Aldrich, St. Louis, MO, cat. D2650) at 800-fold the tested concentration and stored at -70 degrees C prior to their use. All drugs and investigational agents were tested over a range starting from a high concentration at or near the clinical Cmax and decreasing in half-log increments. If the clinical Cmax for an agent had not been determined, the highest concentration tested was 10 microM.
Cell Culture. All cells were maintained in an incubator at 37 degrees C and 5% CO2 with 95% humidity. The PDC lines were cultured according to standard operating procedures established by the NCI PDMR (https://pdmr.cancer.gov/sops/default.htm). Briefly, all PDCs were thawed and cultured in Matrigel-coated flasks prepared with a working solution of 1X Ham's F-12 nutrient mix, without supplementation (Invitrogen, Waltham, MA, cat. 11765054), 100 U/mL penicillin-streptomycin (Invitrogen, cat. 15140122), and 2.5% Matrigel (Corning Inc., Corning, NY, cat. 354248) for the first three passages. All PDCs were cultured in complete DMEM/F-12 media containing advanced DMEM/F-12 (Invitrogen, cat. 12634028), 4.9% defined fetal bovine serum, heat inactivated (HyClone Laboratories Inc., Logan, UT, cat. SH30070.03HI), 389 ng/mL hydrocortisone (Sigma-Aldrich, cat. H4001), 9.7 ng/mL human EGF recombinant protein (Invitrogen, cat. PHG0313), 23.4 microg/mL adenine (Sigma-Aldrich, cat. A2786), 97.3 U/mL penicillin-streptomycin (Invitrogen, cat. 15140122), 1.9 mM L-glutamine (Invitrogen, cat. 25030081), and 9.7 microM Y-27632 dihydrochloride (Tocris Bioscience, Bristol, United Kingdom, cat. 1254). The PDCs were cultured in complete DMEM/F12 media without 9.7 microM Y-27632 dihydrochloride for at least two passages prior to the screen. The established cell line HOP-62 was cultured in RPMI 1640 medium, HEPES (Invitrogen, cat. 22400105) with 10% defined fetal bovine serum (HyClone Laboratories Inc., cat. SH30070.03) and 2 mM L-glutamine (Invitrogen, cat. 25030081). The pooled donor HUVEC were cultured in endothelial cell growth medium 2 (PromoCell, Heidelberg, Germany, cat. C-22011) and the hMSC were cultured in mesenchymal stem cell growth medium 2 (PromoCell, cat. C-28009). For all experiments, HUVEC and hMSC were used at passages </=5, while the malignant cell lines were used at passages </=15. […]

Each structure is given as a SMILES string.
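Also: drug exposure lasted seven days after spheroids formed for three days.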

In the case of `C=CC(=O)N1CCN(c2nc(OCC3CCCN3C)nc3c2CCN(c2cccc4cccc(C)c24)C3)CC1CC#N` (stereo unspecified), the viability, T/C by setting is: (compound 0.0316 µM) 35.5% [middle of 17 runs]; (compound 0.1 µM) 31.3% [middle of 16 runs]; (compound 1 µM) 30.4% [middle of 17 runs]. The IC50 reads like this: (run of 07/12/2021) below 31.6 nM; (run of 07/19/2021) below 31.6 nM; (run of 07/26/2021) below 31.6 nM.

These data come from PubChem BioAssay AID1963856 (Molecular Pharmacology Branch, DTP, NCI, 2024).
